Test results from patent US8350062B2, “Synthesis and anticancer activity of new actin-targeting small-molecule agents” (priority 2009, dated 2013).
“Also recorded” adds a separate entry of the source. Like-named read-outs stand apart in the source and are kept apart here.

Columns and labels:
A549 cells = test: Cell viability assay (CellTiter-Glo), growth inhibition of A549 cells; type: cell-based, human; conditions: 48 h incubation
Procedure: Cell Viability Assays. All assays were performed using at least three replicate wells for each concentration tested. Original 10-25 mM DMSO stock solution of bistramide A or its analogs was diluted to 100 μM for analogs 4-8, 10 μM for analog 3, 5 μM for analog 2 and 1 μM for bistramide A (1) with F-12K cell culture media supplemented with 10% fetal bovine serum, 100 I.U./ml penicillin, 100 μg/ml streptomycin and 2 mM L-glutamine. Two-fold serial dilutions were performed and used for cell-based assays. A549 cells were grown in 96-well white plates at the density of 1,000 cells per well in 100 μl F-12K cell culture media. Cells were allowed to attach over 24 h and treated with 30 μl of the drug solution and incubated further for 48 h. After incubation, cell viability was determined using luminescence-based commercial kit (CellTiter-Glo, Promega) and luminescence measured using a Wallac Victor 3 plate reader. To measure cell growth inhibition, viability assays were performed twice: at initial time point T0 and after 48 h incubation (T48). Change in the number of viable cells was measured, and GI50 was calculated from sigmoidal plots. For analog 10, growth of A549 and PC3 cells was monitored over 96 h following addition of the drug. 100 μM was the highest concentration tested. At no point did the total DMSO conc. exceed 1%.

filamentous actin = filamentous actin (Oryctolagus cuniculus, UniProt P68135); test: TIRF microscopy of actin filament severing and depolymerization; type: biochemical, rabbit; parameters: Actin was purified from rabbit muscle acetone powder; tissue Pel-Freez Biologicals (acetone powder); host or cells: rabbit muscle acetone powder; conditions: for Pointed-end depolymerization rate: standard deviations 0.1-0.3 subunits/s; for Barbed-end depolymerization rate: standard deviations 0.4-0.6 subunits/s; for effect on actin depolymerization: concentrations as high as 200 μM; for severing of actin filaments compared to bistramide A (1): determined at 15 μM
From the text: To gain further insight into the mode of action of bistramide A, we next investigated the interaction of the natural product and its analogs with filamentous actin. […] Similar observations have been reported for several other actin-binding natural products. However, this effect could provide only limited mechanistic information and may primarily reflect the binding of a small molecule to the filaments in close proximity to the dye and quenching of pyrene fluorescence, which could be independent of the rates of actin depolymerization. Some proteins like myosin and Actin Depolymerizing Factor (ADF)/Cofilin are known to do so. Total internal reflection fluorescence (TIRF) microscopy has recently emerged as a powerful tool to investigate actin filament dynamics and its regulation by several actin-binding proteins, as well as latrunculin A, which is […] depolymerizing filamentous actin in vitro. Thus, we decided to employ TIRF microscopy to observe in real time the effects of bistramide-based compounds on actin polymerization in vitro. We believe this is the first instance where TIRF microscopy has been utilized to study the severing of actin filaments by a small molecule. We polymerized G-actin containing 25% of tetramethylrhodamine-functionalized and 10% of biotin-functionalized actin. The resulting actin filaments were immobilized onto the streptavidin-coated glass slides (in a flow cell). Analogs 1-8 were flown through the flow cell and imaged by time-lapse TIRF microscopy.
Total Internal Reflection Fluorescence Microscopy. Actin filament severing was studied using a custom-built total internal reflection fluorescence microscope. Images were collected with a 100×, 1.45 NA objective (Olympus) and an EMCCD camera (iXon, Andor Technologies). Glass flow cell (6 μl volume) was washed with 0.25 mg/ml neutravidin in F-buffer (50 mM KCl, 1 mM MgCl2, 1 mM EGTA, 10 mM imidiazole, 2 mM ATP, 0.2 mM 2-mercaptoethanol, 2 min) and blocked with 1 mg/ml BSA in F-buffer (2 min). Ten microliters of 200 nM Mg^2+-F-actin (10% biotinylated, 25% labeled with maleimide-6-tetramethylrhodamine) in TIRF-buffer (50 mM KCl, 1 mM MgCl2, 1 mM EGTA, 10 mM imidiazole, 2 mM ATP, 4.5 mg/ml glucose, 0.5% 2-mercaptoethanol, 4.3 mg/ml glucose oxidase, 0.7 mg/ml catalase) was added to the flowcell and incubated for 2 min. The chamber was rinsed with TIRF-buffer and imaged. Compounds were freshly diluted from their DMSO stock solutions in TIRF-buffer and were added to the chamber immediately after the start of each experiment. Images were collected at 0.2-s exposures every 3 s for 200 frames. For kinetics studies, movies of suitable length were obtained for each of the analog concentrations. Analysis was performed using ImageJ.

G-actin [1] = molecular target: T1, G-actin (Oryctolagus cuniculus, UniProt P68135); test: Isothermal titration calorimetry, binding to monomeric actin; parameters: species or system rabbit; conditions: for Kd: isothermal titration calorimetry, 25° C.
T1 construct: Actin was purified from rabbit muscle acetone powder; tissue Pel-Freez Biologicals (acetone powder); host or cells: rabbit muscle acetone powder
Procedure: Isothermal Titration Calorimetry. A solution of rabbit skeletal muscle actin (5-10 μM) was titrated with bistramide A or its analog (50-100 μM) at 25° C. in buffer containing 2 mM Tris HCl, pH 8.0, 0.2 mM CaCl2, 0.01% NaN3, 0.2 mM ATP, 0.2 mM 2-mercaptoethanol. Dissociation constants were calculated from the binding curve using Origin analytical software (OriginLab) with the binding model involving a single set of identical sites

F-actin in A549 cells = test: Fluorescent visualization of F-actin in A549 cells (Alexa Fluor 488 phalloidin); type: cell-based, human; conditions: for actin depolymerization in A549 cells: 100 μM, 2 h; for concentration inducing actin depolymerization in A549 cells: 2 h incubation
Procedure: The presence of the enone increased the severing efficiency of the analogs three-fold. […] We determined whether it was the depletion of actin filaments by analogs 2-5 which was responsible for the growth inhibition of A549 cells. Each of the compounds was incubated with A549 cells for 2 h at a concentration that exceeded the GI50 value by a factor of 5. The cells were then fixed, permeabilized and filamentous actin was visualized by fluorescence microscopy following Alexa Fluor 488 phalloidin staining. […] They induced depolymerization at 150 nM for bistramide A (1), 500 nM for analog 2 and 2 μM for analog 3. Analogs 4 and 5 induced depolymerization of actin only at concentrations as high as 100 μM. […] This observation was consistent with the enhanced cell-based activity of the compounds containing the C(1)-C(4) enone moiety.
Fluorescent Visualization Of F-Actin In Cells. A549 cells grown on coverslips were incubated with analogs 4-8 (100 μM) analog 3 (2 μM) or analog 2 (500 nM) or bistramide A (150 nM) in F-12K cell culture medium for 2 h, fixed with 3% formaldehyde in PBS at 25° C. for 5 min and permeabilized with 0.1% Triton X-100 at 25° C. for 10 min. After washing with PBS, coverslips were stained with Alexa Fluor 488 Phalloidin and visualized by fluorescence microscopy.

[2] = system: non-small cell broncho-pulmonary carcinoma xenografts; conditions: mouse, in vivo; cited from earlier work
G-actin [3] = molecular target: T1, G-actin; test: Interaction with actin by MALDI-TOF (covalent modification); type: biochemical, rabbit; conditions: 1:1 actin-drug complex, 30 min
Procedure: Interaction Of Bistramide-Based Compounds With Actin By MALDI-TOF. A 1:1 actin-drug complex was incubated for 30 min in 2 mM Tris-HCl, pH 8.0, 0.2 mM CaCl2, 0.01% NaN3, 0.2 mM ATP, 1 mM 2-mercaptoethanol, diluted with deionized water to 26 μM and mixed with an equal volume of a solution of 10 mg/ml sinapinic acid in 50% CH3CN— 0.1% TFA. MALDI spectra were obtained on a Voyager-DE PRO biospectrometry workstation.

[4] = mouse, in vivo; cited from earlier work
[5] = Homo sapiens, A549, 48 h, read-out: GI50
[6] = Homo sapiens, A549, 48 h, values of the text, read-out: GI50

Row | SMILES | GI50 (A549 cells) | No. of breaks per 100 μm (filamentous actin; compound at 200 μM) | Pointed-end depolymerization rate (filamentous actin; compound at 200 μM) | Barbed-end depolymerization rate (filamentous actin; compound at 200 μM) | actin depolymerization in A549 cells (F-actin in A549 cells) | GI50 (A549 cells; [5]) | Kd (G-actin [1]; read-out: Kd) | concentration inducing actin depolymerization in A549 cells (F-actin in A549 cells) | covalent modification of G-actin (G-actin [3]) | No. of breaks per 100 μm (filamentous actin; compound at 15 μM) | Pointed-end depolymerization rate (filamentous actin; compound at 15 μM) | Barbed-end depolymerization rate (filamentous actin; compound at 15 μM) | severing of actin filaments compared to bistramide A (1) (filamentous actin) | also measured
1 | C=C[C@@H](C)CC[C@@H]1CCC[C@]2(CCC(C)[C@@H](CCCNC(C)=O)O2)O1 (stereo partly drawn) [Analog 7] | No cell -based activity | 0.2 per 100 μm | 0.32 subunits/s | 1.87 subunits/s | No depolymerization was observed | – | – | – | – | – | – | – | – | effect on actin depolymerization (filamentous actin): no effect on actin depolymerization; observable activity (actin binding by ITC and inhibition of A549 proliferation) (G-actin [1]): neither the spiroketal (analog 7) nor the central amide subunit (analog 8) alone displayed any observable activity; Kd (G-actin [1]): No actin binding
2 | C/C=C/[C@H](O)CC1CCC(C)C(CC(=O)NCC(O)C(C)C(=O)NCCCC2OC3(CCCC(CCC(C)/C=C(\C)C(C)O)O3)CCC2C)O1 (stereo partly drawn) [bistramide D] | – | – | – | – | – | – | – | – | – | – | – | – | – | inhibition of tumor growth in xenograft model [2]: shown to inhibit proliferation; also recorded: effective at inhibiting tumor growth in vivo
3 | C=CCC[C@@H]1CCC[C@]2(CCC[C@@H](CCCNC(=O)[C@@H](C)[C@@H](O)CNC(=O)CC3O[C@H](CC(=O)/C=C/C)CCC3C)O2)O1 (stereo partly drawn) [Analog 3] | – | 13.3 per 100 μm | 0.57 subunits/s | 1.84 subunits/s | – | 323 nM | 1500 nM | 2 µM | covalently modified G-actin | – | – | – | – | GI50 (A549 cells; [6]): 323 nM; concentration at which actin filaments were severed (filamentous actin): 200 µM
4 | C=C[C@@H](C)CC[C@@H]1CCC[C@]2(CCC(C)[C@@H](CCCNC(=O)[C@@H](C)[C@@H](O)CNC(=O)CCOC)O2)O1 (stereo partly drawn) [Analog 5] | – | – | – | – | – | 15100 nM | 43 nM | 100 µM | no cross-linking was observed | 13.0 per 100 μm | 0.55 subunits/s | 1.93 subunits/s | severed actin filaments albeit with lesser efficiency | –
5 | COCCC(=O)NC[C@H](O)[C@H](C)C(=O)NCCCCC(C)C [Analog 8] | No cell -based activity | None | 0.21 subunits/s | 2.15 subunits/s | No depolymerization was observed | – | – | – | – | – | – | – | – | effect on actin depolymerization (filamentous actin): no effect on actin depolymerization; observable activity (actin binding by ITC and inhibition of A549 proliferation) (G-actin [1]): neither the spiroketal (analog 7) nor the central amide subunit (analog 8) alone displayed any observable activity; Kd (G-actin [1]): No actin binding
6 | C=C[C@@H](C)CC[C@@H]1CCC[C@]2(CCC(C)[C@@H](CCCNC(=O)[C@@H](C)[C@@H](O)CNC(=O)CC3O[C@H](CC(=O)/C=C/C)CCC3C)O2)O1 (stereo partly drawn) [Analog 2] | – | – | – | – | – | 87 nM | 70 nM | 0.5 µM | covalently modified G-actin | 41.8 per 100 μm | 0.48 subunits/s | 1.90 subunits/s | severed actin filaments albeit with lesser efficiency | GI50 (A549 cells; [6]): 87.1 nM; potency at severing filamentous actin relative to analog 4 (filamentous actin; initial rate of severing, 1-15 μM): at least three times more potent at severing filamentous actin
7 | C=CC[C@@H]1CCCC(CC(=O)NC[C@H](O)[C@H](C)C(=O)NCCC[C@H]2O[C@@]3(CCC[C@@H](CC[C@H](C)C=C)O3)CCC2C)O1 (stereo partly drawn) [Analog 4] | – | – | – | – | – | 11200 nM | 319 nM | 100 µM | no cross-linking was observed | 16.5 per 100 μm | 0.51 subunits/s | 1.92 subunits/s | severed actin filaments albeit with lesser efficiency | –
8 | C/C=C/C(O)C/C=C/CC(C)C(O)CC(=O)NCC(O)C(C)C(=O)NCCCC1OC2(CCCC(CCC(C)/C=C(\C)C(C)O)O2)CCC1C (stereo not drawn) [bistramide K] | – | – | – | – | – | – | – | – | – | – | – | – | – | inhibition of tumor growth in xenograft model [2]: shown to inhibit proliferation; also recorded: effective at inhibiting tumor growth in vivo; dose with no observed toxicity [4]: up to 200 mg/kg
9 | C=CCC[C@@H]1CCC[C@]2(CCC[C@@H](CCCNC(=O)[C@@H](C)[C@@H](O)CNC(=O)CCOC)O2)O1 [Analog 6] | No cell -based activity | 3.4 per 100 μm | 0.41 subunits/s | 2.29 subunits/s | No depolymerization was observed | > 100000 nM | 680 nM | – | no cross-linking was observed | – | – | – | – | concentration at which actin filaments were severed (filamentous actin): 200 µM
